# Measurements taken from patent publication US9578880B2, “Acetyl co-enzyme A carboxylase herbicide resistant plants” (Colorado Wheat Research Foundation, Inc., priority 2011, dated 2017).
# How the values were obtained:
# [1] = tested on: non-mutant Hatcher winter wheat (Accession 0); assay: Cross-resistance study, plant survival after other ACCase herbicides (non-mutant check); format: in vivo, Triticum aestivum L.; conditions: Accession 0 (non-mutant check); clethodim 65, sethoxydim 264, fluazifop 361 g ai ha^-1, clethodim + 10.5 g ai ha^-1 quizalofop; 28 DAT
# Procedure: (§1) A cross-resistance study was conducted within the ACCase herbicide mode of action using herbicides normally lethal to wheat. Clethodim, sethoxydim, and fluazifop were used at rates of 65, 264, and 361 g ai ha^−1, plus a treatment of clethodim and 10.5 g ai ha^−1 quizalofop. Seven DAT the tops of plants were cut off above the newest above-ground growing point. Binomial evaluation of plant survival was performed 28 DAT. Tolerance of quizalofop mutants to clethodim and sethoxydim was low (Table 1). The presence of any cross tolerance presents evidence that combining multiple homologous resistant ACCase genes into a single plant could lead to resistance to additional herbicides. At this stage only a third of the total ACCase in the plant would have a mutation and contain tolerance to ACCase inhibitors if the mutation is target-site-based.
# [2] = tested on: quizalofop tolerant mutant wheat accessions; assay: Cross-resistance study, plant survival after other ACCase herbicides (quizalofop tolerant mutants); format: in vivo, Triticum aestivum L.; conditions: 28 DAT
# Procedure: as §1
# [3] = tested on: quizalofop-tolerant wheat accessions vs non-mutant Hatcher wheat; assay: Visual evaluation of injury to quizalofop; format: in vivo, Triticum aestivum L.; conditions: 21.05 g ai ha^-1; 28 DAT; nearly all of 18 quizalofop-tolerant accessions
# Procedure: 18 quizalofop-tolerant accessions were treated with 21.05 g ai ha^−1 quizalofop, a discriminating dose based on previous studies. Plants were evaluated 28 days after treatment (DAT) for visible injury to quizalofop on a scale of 0 to 100%, with 0 being no injury and 100 being complete desiccation. Nearly all accessions evaluated in this study appeared more tolerant to quizalofop than non-mutant Hatcher wheat (FIG. 5). The accessions contained few completely dead plants, with the exception of the one accession not different than the background.
# [4] = tested on: ACCase of non-mutagenized Hatcher winter wheat; assay: In-vitro ACCase enzyme assay; format: biochemical, Triticum aestivum L.; conditions: 0.1, 1, 10, 100 μM
# Procedure: (§2) An in-vitro enzyme assay was conducted to observe ACCase in conjunction with quizalofop directly to determine if the presence of ACCase mutations decreases the ability of herbicides to inhibit ACCase activity. Four quizalofop concentrations of 0.1, 1, 10, and 100 μM were included in the assay along with a non-treated control. The experiment included four accessions which included a representative from the three mutations detected and non-mutagenized wheat. […] Calculated at the I25 level, the resistant to susceptible value for the A genome was 4.57, the B genome was 3.57 and the D genome was 10.86.
# [5] = tested on: ACCase, B genome nucleotide substitution (Ala2004Val); assay: In-vitro ACCase enzyme assay; format: biochemical, Triticum aestivum L.
# Procedure: as §2
# [6] = tested on: ACCase, D genome nucleotide substitution (Ala2004Val); assay: In-vitro ACCase enzyme assay; format: biochemical, Triticum aestivum L.; conditions: for ACCase tolerance compared with background: D genome substitution
# Procedure: as §2
# [7] = tested on: ACCase, A genome nucleotide substitution (Ala2004Val); assay: In-vitro ACCase enzyme assay; format: biochemical, Triticum aestivum L.
# Procedure: as §2
# [8] = Accession 1, clethodim 65, sethoxydim 264, fluazifop 361 g ai ha^-1, clethodim + 10.5 g ai ha^-1 quizalofop
SMILES,survival after application of ACCase herbicide [1] [%],"survival after application of ACCase herbicide [2, 8] [%]","survival after application of ACCase herbicide ([2]; Accession 2, same rates) [%]","survival after application of ACCase herbicide ([2]; Accession 3, same rates) [%]","survival after application of ACCase herbicide ([2]; Accession 4, same rates) [%]","survival after application of ACCase herbicide ([2]; Accession 5, same rates) [%]","survival after application of ACCase herbicide ([2]; Accession 6, same rates) [%]","survival after application of ACCase herbicide ([2]; Accession 7, same rates) [%]","survival after application of ACCase herbicide ([2]; Accession 8, same rates) [%]","survival after application of ACCase herbicide ([2]; Accession 9, same rates) [%]","survival after application of ACCase herbicide ([2]; Accession 10, same rates) [%]","survival after application of ACCase herbicide ([2]; Accession 11, same rates) [%]","survival after application of ACCase herbicide ([2]; Accession 12, same rates) [%]","survival after application of ACCase herbicide ([2]; Accession 13, same rates) [%]","survival after application of ACCase herbicide ([2]; Accession 14, same rates) [%]","survival after application of ACCase herbicide ([2]; Accession 15, same rates) [%]","survival after application of ACCase herbicide ([2]; Accession 16, same rates) [%]","survival after application of ACCase herbicide ([2]; Accession 17, same rates) [%]",further results
"CCSC(C)CC1CC(=O)C(/C(CC)=N/OC/C=C/Cl)=C(O)C1 (stereo not shown) [Clethodim, clethodim]",0,10,0,0,0,0,0,0,25,17,0,0,17,0,0,0,0,0,
CC(Oc1ccc(Oc2cnc3cc(Cl)ccc3n2)cc1)C(=O)O (stereo not shown) [quizalofop],,,,,,,,,,,,,,,,,,,"visible injury, tolerance of accessions compared with non-mutant Hatcher wheat [3]: more tolerant; sensitivity of ACCase compared with the mutant accessions [4]: greater sensitivity; ACCase tolerance compared with background ([5]; 10 μM, B genome substitution): higher than background levels of tolerance; resistant to susceptible value calculated at the I25 level ([5]; B genome mutant vs non-mutagenized wheat): 3.57; ACCase tolerance compared with background ([6]; 10 μM): higher than background levels of tolerance; ACCase tolerance compared with background ([6]; 100 μM): higher than background tolerance; resistant to susceptible value calculated at the I25 level ([6]; D genome mutant vs non-mutagenized wheat): 10.86; ACCase tolerance compared with background ([7]; 100 μM, A genome substitution): higher than background tolerance; resistant to susceptible value calculated at the I25 level ([7]; A genome mutant vs non-mutagenized wheat): 4.57"
"CC(Oc1ccc(Oc2ccc(C(F)(F)F)cn2)cc1)C(=O)O (stereo not shown) [Fluazifop, fluazifop]",0,0,0,0,0,0,0,0,0,0,0,0,0,0,0,0,0,0,
"CCC/C(=N\OCC)C1=C(O)CC(CC(C)SCC)CC1=O (stereo not shown) [Sethoxydim, sethoxydim]",0,0,0,0,0,0,0,0,0,0,0,8,8,0,0,0,0,0,"Tolerance of quizalofop mutants (cross-resistance) ([2]; clethodim 65, sethoxydim 264 g ai ha^-1): low"
